According to patent US8008490B2, “Polymorphic forms of aripiprazole and method” (Sandoz AG, priority 2005, dated 2011):

What was measured:
[1] = Moisture sorption isotherm (hygroscopicity); type: physicochemical; conditions: FIG. 10
[2] = Solution mediated transformation of aripiprazole forms (thermodynamic stability); type: physicochemical; conditions: at temperatures at and below about 60° C.

SMILES: O=C1CCc2ccc(OCCCCN3CCN(c4cccc(Cl)c4Cl)CC3)cc2N1 [Form X of aripiprazole, 7-[4-[4-(2,3-dichlorophenyl)-1-piperazinyl]butoxy]-3,4-dihydro-2(1H)-quinolinone]
- conversion into a hydrated form of aripiprazole [1]: does not substantially convert into a hydrated form of aripiprazole
- hygroscopicity [1]: low hygroscopicity
- thermodynamic stability (Gibbs free energy relative to other forms of aripiprazole) [2]: lowest Gibbs free energy
